Values quoted from earlier work, collected in patent publication US20170368087A1, “PHARMACEUTICAL COMPOSITION COMPRISING TOPIRAMATE” (INNOVACO PHARMACEUTICALS, INC., priority 2014, published 2017).

## CC1(C)O[C@@H]2[C@@H](CO[C@@]3(COS(N)(=O)=O)OC(C)(C)O[C@@H]23)O1 [Topiramate, 2,3:4,5-Di-O-isopropylidene-β-D-fructo-pyranose sulfamate]
  solubility in acetone, dimethyl sulfoxide, ethanol, and alkaline solutions containing sodium hydroxide or sodium phosphate: freely soluble
Room temperature
  solubility in water: approximately 9.8 mg/mL
